Assay results: patent US8916567B2, “Certain crystalline hydrates, pharmaceutical compositions thereof and methods for preparation and use thereof” (Universal Technology Alliance, Inc., priority 2009, dated 2014)
Where two headings read alike, the source gives them in different places.

Assays:
E. feacalis = test: Minimum inhibitory concentration (MIC) in vitro, agar dilution method; assay type: cell-based; conditions: hydrate
How it was run: (§1)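 MIC50, MIC90, MIC range and individual MICs derive from CLSI/NCCLS agar dilution testing of 2007-2008 clinical isolates from Sichuan and Beijing. Samples were prepared in DMSO with further dilution in sterile water; vancomycin and linezolid served as reference drugs.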

E. feacium = test: as above; assay type: cell-based
How it was run: as §1

S. epidermidis MRSE = test: as above; assay type: cell-based; conditions: hydrate
How it was run: as §1

S. epidermidis MSSE = test: as above; assay type: cell-based
How it was run: as §1

[1] = test system: Staphylococcus aureus MRSA; test: as above; assay type: cell-based
How it was run: as §1

[2] = test system: Staphylococcus aureus MSSA; test: as above; assay type: cell-based
How it was run: as §1

Staphylococcus aureus = test: Minimum inhibitory concentration (MIC) in vitro, agar dilution method, quality control strain; assay type: cell-based; conditions: strain S. AT C C25923 (Table 7 No. 1); hydrate
How it was run: as §1

[3] = Solubility in different solvents according to Chinese Pharmacopeia (2005 edition); assay type: physicochemical; conditions: for Result: at the given solute:solvent ratio
Experimental: The solubility of the (S)—[N-3-(3′-fluoro-4′-(4″-phenylpiperazinyl))phenyl-2-oxo-5-oxazolelidinyl]methylacetamide hydrates was tested with different solvents, and the test results are shown in Tables 15-19. The solubility was measured according to Chinese Pharmacopeia (2005 edition).

[4] = E. feacalis (5 strains), clinically isolated
[5] = E. feacium (5 strains), clinically isolated, hydrate
[6] = S. ep MRSE (10 strains), clinically isolated
[7] = S. ep MSSE (10 strains), clinically isolated, hydrate
[8] = S. MRSA (10 strains), clinically isolated, hydrate
[9] = S. MSSA (11 strains), clinically isolated, hydrate

CC(=O)NC[C@H]1CN(c2ccc(N3CCN(c4ccccc4)CC3)c(F)c2)C(=O)O1 [½ hydrate, (S)—[N-3-(3′-fluoro-4′-(4″-phenylpiperazinyl))phenyl-2-oxo-5-oxazolidinyl]methyl acetamide 1/2 hydrate]
MIC50 (E. feacalis; [4]): 0.125 µg/mL
MIC90 (E. feacalis; [4]): 0.25 µg/mL
MICrange (E. feacalis; [4]): 0.06 to 0.25 µg/mL
MIC (E. feacalis; strain Efa 54 (Table 8 No. 20)): 0.06 µg/mL
MIC (E. feacalis; strain Efa 116 (Table 8 No. 16)): 0.25 µg/mL
MIC (E. feacalis; strain Efa 3006 (Table 8 No. 18)): 0.06 µg/mL
MIC (E. feacalis; strain Efa 33748 (Table 8 No. 17)): 0.25 µg/mL
MIC50 (E. feacium; [5]): 0.5 µg/mL
MIC90 (E. feacium; [5]): 1 µg/mL
MICrange (E. feacium; [5]): 0.25 to 1 µg/mL
MIC (E. feacium; strain Efm 98 (Table 8 No. 21), hydrate): 0.25 µg/mL
MIC (E. feacium; strain Efm 171 (Table 8 No. 25), hydrate): 0.25 µg/mL
MIC (E. feacium; strain Efm 197 (Table 8 No. 22)): 0.5 µg/mL
MIC (E. feacium; strain Efm N3 (Table 8 No. 23), hydrate): 0.5 µg/mL
MIC (E. feacium; strain Efm N4 (Table 8 No. 24), hydrate): 1 µg/mL
MIC50 (S. epidermidis MRSE; [6]): 0.25 µg/mL
MIC90 (S. epidermidis MRSE; [6]): 0.25 µg/mL
MICrange (S. epidermidis MRSE; [6]): 0.25 µg/mL
MIC (S. epidermidis MRSE; strain S. ep MRSE4 (Table 8 No. 9)): 0.25 µg/mL
MIC (S. epidermidis MRSE; strain S. ep MRSE20 (Table 8 No. 6)): 0.25 µg/mL
MIC (S. epidermidis MRSE; strain S. ep MRSE87 (Table 8 No. 13)): 0.25 µg/mL
MIC (S. epidermidis MRSE; strain S. ep MRSE90 (Table 8 No. 10)): 0.25 µg/mL
MIC (S. epidermidis MRSE; strain S. ep MRSE101 (Table 8 No. 7)): 0.25 µg/mL
MIC (S. epidermidis MRSE; strain S. ep MRSE105 (Table 8 No. 11)): 0.25 µg/mL
MIC (S. epidermidis MRSE; strain S. ep MRSE140 (Table 8 No. 14)): 0.25 µg/mL
MIC (S. epidermidis MRSE; strain S. ep MRSE142 (Table 8 No. 12)): 0.25 µg/mL
MIC (S. epidermidis MRSE; strain S. ep MRSE210 (Table 8 No. 15)): 0.25 µg/mL
MIC (S. epidermidis MRSE; strain S. ep MRSE211 (Table 8 No. 8)): 0.25 µg/mL
MIC90 (S. epidermidis MSSE; [7]): 0.25 µg/mL
MICrange (S. epidermidis MSSE; [7]): 0.06 to 0.25 µg/mL
MIC50 (S. epidermidis MSSE; Staphylococcus epidermidis, S. ep MSSE (10 strains), clinically isolated, read-out: MIC50): 0.25 µg/mL
MIC (S. epidermidis MSSE; Staphylococcus epidermidis, strain S. ep MSSE113 (Table 7 No. 24), read-out: MIC): 0.25 µg/mL
MIC (S. epidermidis MSSE; Staphylococcus epidermidis, strain S. ep MSSE118 (Table 8 No. 2), read-out: MIC): 0.25 µg/mL
MIC (S. epidermidis MSSE; Staphylococcus epidermidis, strain S. ep MSSE140 (Table 8 No. 3), read-out: MIC): 0.25 µg/mL
MIC (S. epidermidis MSSE; strain S. ep MSSE87 (Table 7 No. 23), hydrate): 0.06 µg/mL
MIC (S. epidermidis MSSE; strain S. ep MSSE88 (Table 8 No. 5), hydrate): 0.25 µg/mL
MIC (S. epidermidis MSSE; strain S. ep MSSE116 (Table 7 No. 25), hydrate): 0.25 µg/mL
MIC (S. epidermidis MSSE; strain S. ep MSSE119 (Table 7 No. 27), hydrate): 0.25 µg/mL
MIC (S. epidermidis MSSE; strain S. ep MSSE137 (Table 8 No. 4), hydrate): 0.25 µg/mL
MIC (S. epidermidis MSSE; strain S. ep MSSE142 (Table 7 No. 26), hydrate): 0.125 µg/mL
MIC (S. epidermidis MSSE; strain S. ep MSSE153 (Table 8 No. 1), hydrate): 0.25 µg/mL
MIC50 [1, 8]: 0.25 µg/mL
MIC90 [1, 8]: 0.25 µg/mL
MICrange [1, 8]: 0.25 to 0.5 µg/mL
MIC ([1]; Staphylococcus aureus, MRSA, strain S. MRSA 101 (Table 7 No. 14), read-out: MIC): 0.5 µg/mL
MIC ([1]; Staphylococcus aureus, MRSA, strain S. MRSA 201 (Table 7 No. 13), read-out: MIC): 0.5 µg/mL
MIC ([1]; Staphylococcus aureus, MRSA, strain S. MRSA B27 (Table 7 No. 21), read-out: MIC): 0.25 µg/mL
MIC ([1]; strain S. MRSA 29 (Table 7 No. 15), hydrate): 0.25 µg/mL
MIC ([1]; strain S. MRSA B105 (Table 7 No. 17), hydrate): 0.25 µg/mL
MIC ([1]; strain S. MRSA B143 (Table 7 No. 19), hydrate): 0.25 µg/mL
MIC ([1]; strain S. MRSA B151 (Table 7 No. 20), hydrate): 0.25 µg/mL
MIC ([1]; strain S. MRSA B164 (Table 7 No. 16), hydrate): 0.25 µg/mL
MIC ([1]; strain S. MRSA B199 (Table 7 No. 22), hydrate): 0.25 µg/mL
MIC ([1]; strain S. MRSA B617 (Table 7 No. 18), hydrate): 0.25 µg/mL
MIC50 [2, 9]: 0.25 µg/mL
MIC90 [2, 9]: 0.25 µg/mL
MICrange [2, 9]: 0.25 to 0.5 µg/mL
MIC ([2]; Staphylococcus aureus, MSSA, strain S. MSSA 195 (Table 7 No. 6), read-out: MIC): 0.5 µg/mL
MIC ([2]; Staphylococcus aureus, MSSA, strain S. MSSA 201 (Table 7 No. 11), read-out: MIC): 0.25 µg/mL
MIC ([2]; Staphylococcus aureus, MSSA, strain S. MSSA 466 (Table 7 No. 8), read-out: MIC): 0.25 µg/mL
MIC ([2]; Staphylococcus aureus, MSSA, strain S. MSSA 519 (Table 7 No. 9), read-out: MIC): 0.5 µg/mL
MIC ([2]; strain S. MSSA 123 (Table 7 No. 3), hydrate): 0.25 µg/mL
MIC ([2]; strain S. MSSA 187 (Table 7 No. 7), hydrate): 0.25 µg/mL
MIC ([2]; strain S. MSSA 195 (Table 7 No. 12), hydrate): 0.25 µg/mL
MIC ([2]; strain S. MSSA 232 (Table 7 No. 2), hydrate): 0.25 µg/mL
MIC ([2]; strain S. MSSA 275 (Table 7 No. 10), hydrate): 0.25 µg/mL
MIC ([2]; strain S. MSSA 520 (Table 7 No. 4), hydrate): 0.25 µg/mL
MIC ([2]; strain S. MSSA 580 (Table 7 No. 5), hydrate): 0.25 µg/mL
MIC (Staphylococcus aureus): 0.25 µg/mL
Solubility compared with the anhydride ([3]; different solvents): sometimes more soluble than the anhydride
Result ([3]; solvent 0.1N Hydrochloric acid): Dissolved
Result ([3]; solvent 0.1N Sodium hydroxide): Insoluble
Result ([3]; solvent Acetonitrile): Dissolved
Result ([3]; solvent Ethanol): Dissolved
Result ([3]; solvent Methanol): Dissolved
Result ([3]; solvent Water, hydrate): Dissolved
